Patent US20240209061A1, “FUSION PROTEINS AND USES THEREOF” (Pfizer Inc., priority 2020, published 2024)
Entries after “also recorded” stand apart in the source; their conditions may differ.

Experiments:
[1] = tested on: NY-ESO1-TCR+ Jurkat reporter cells; experiment: Jurkat-NYESO1-IL-2-Luc and A375-CD64 co-stimulation assay; type: cell-based, human
From the text: Jurkat-IL-2-Luc reporter cells (Promega, Product #J1631) were engineered with T cell receptor, TCR (Wargo J. Cancer Immunol Immunother 2009; Zhao Y. J Immunol 2005, Li Y, Nat Biotechnol 2005) against HLA-A2 restricted NY-ESO1 (SLLMWITQC-SEQ ID NO: 19) epitope using lentiviral transduction system. Human melanoma cells A375, which express human HLA-A*0201, were transduced with lentiviral vector containing endogenous codon for NY-ESO1 gene (Refseq accession NM_001327.2, CCDS14758.1). Upon expression, the construct underwent proteolytic cleavage at the ubiquitin/epitope junction, thus generating free, cytoplasmic epitope, which can be translocated into the endoplasmic reticulum and loaded onto class I HLA. A375-NY-ESO1 positive cells were treated with IFNγ to induce HLA expression and NY-ESO1 antigen presentation. The HLA expression and the antigen presentation was confirmed by Western Blot. The NY-ESO1^+-A375 cells were further engineered to express human FCγRI (CD64, GenBank:AAA58414.1, RefSeq:P12314.1) for cell surface assembly and displaying of CD80-Fc fusion proteins. The expression of FCγRI was confirmed by flow cytometry analysis.
A 96 well culture plate was seeded with NY-ESO1^+-A375 cells or NY-ESO1^+/FCγRI^+-A375 at 40,000 cells per well in 100 µL growth media (RPMI, 10% Heat Inactivated FBS, 200 μg/mL Hygromycin B, 1 mM sodium pyruvate, 0.1 mM MEM NEAA, 1 μg/mL puromycin) containing 10 ng/ml of human IFNγ (R&D Systems, product #285-IF) to induce MHC-A2 expression and grown overnight at 37° C. in CO2 incubator. To each well, NY-ESO1-TCR^+ Jurkat reporter cells, 100,000 (in 20 μL media), were added. 20 μL of serial dilutions of variant CD80-Fc fusion proteins with concentrations ranging from 0-1000 ng/ml (final concentrations per well) was added with appropriate controls. Assay plates were incubated for 6 hours at 37° C. in CO2 incubator. Following equilibration, 80 μL BioGlo luminescence reagent (BioGlo Luciferase assay kit, Promega, G7940) was added into each well. Plates were incubated for 5 minutes before reading luminescence on the EnSight™ plate reader (PerkinElmer).

human PD-L1 = human PD-L1 (Homo sapiens, UniProt Q9NZQ7); experiment: SPR (Biacore) binding to immobilized human PD-L1; settings: Human PD-L1 immobilized at 60 μg/ml and 75 μg/ml
Chain of human PD-L1 (Q9NZQ7 19-238 limits assumed): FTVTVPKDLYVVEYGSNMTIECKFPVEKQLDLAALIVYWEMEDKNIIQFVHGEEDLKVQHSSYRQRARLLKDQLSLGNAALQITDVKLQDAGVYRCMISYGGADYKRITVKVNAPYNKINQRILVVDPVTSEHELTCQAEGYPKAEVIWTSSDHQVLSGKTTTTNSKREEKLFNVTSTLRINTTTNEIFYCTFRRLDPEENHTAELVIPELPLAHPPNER
Procedure: (physiologic temperature) with a collection rate of 10 Hz. Purified soluble ligands were covalently coupled onto a CM5 sensor chip using an Amine coupling Kit (GE Healthcare, Product #BR100050) following the manufacturer's recommendations. […] The flow was again returned to running buffer and dissociation was monitored for 300 sec. Binding affinities and rate constants were determined by fitting the resulting double referenced (Myszka, D. G. J. Mol. Recognit. 12, 279-284 (1999)) sensorgram data to a 1:1 Langmuir model with Biacore Insight Evaluation software version 2.0 (GE Healthcare).
Binding of variant CD80-Fc to PD-L1 was not detected. FIG. 9A-9D show the SPR sensorgrams depicting binding of varying concentrations of CD80-WT-Fc and CD80-K89D-D90K-T28V-T57V-Fc to two different concentrations of immobilized human PD-L1 (60 μg/ml and 75 μg/ml).

CD3+ T cells from PBMCs = experiment: Gene expression pattern in primary human T cells (Nanostring); type: cell-based; settings: with anti-human CD3 antibody; 24 hour
Procedure: 96-well plates were coated overnight with 1 μg/ml of anti-human CD3 antibody (HIT3a clone, BioLegend). The following day, plates were washed 2× with PBS and blocked for 1 hour with 200 μl of complete IMDM (10% FBS, 1% Pen/Strep)/well. Upon removal of the blocking medium, plates were seeded with 250,000 PBMCs derived from three different donors and the following proteins: 1) 1.2 μg/ml CD80-K89D-D90K-T28V-T57V-Fc (concentration associated with max IL-2 production in similar assays), 2) 12 μg/ml CD80-WT-Fc (concentration associated with max IL-2 production in similar assay), and 3) 5 μg/ml anti-human CD28 antibody.
After 24 hour incubation at 37° C. in a CO2 incubator, cells were harvested and stained with viability dye and anti-human CD3 (UCHT1 clone, Biolegend)). Viable CD3+ T cells were flow sorted and used for RNA extraction following Qiagen RNeasy protocol. Isolated RNA was used for a gene expression analysis utilizing Nanostring platform.

[2] = mouse, in vivo, iv, 0.1 mg/kg
Procedure: PK of CD80-Fc fusion proteins was also assessed in transgenic mice expressing the human neonatal Fc receptor (huFcRn) a-chain transgene under the control of its natural human promoter. Female mice were dosed intravenously with CD80-Fc fusion proteins at 0.1 mg/kg, and blood was collected at the timepoints indicated on the graph. Levels of CD80-Fc in mouse plasma were measured as described above.

human PBMCs (T cells) = experiment: Co-stimulation of primary human T cells with CEFT peptide; type: cell-based
Procedure: Serial, 3-fold dilutions of CD80-K89D-D90K-T28V-T57V-Fc and CD80-WT-Fc were prepared in complete IMDM medium (10% FBS, 1% Pen/Strep). CEFT peptide (PM-CEFT, JPT Peptide Technologies) was reconstituted in the same medium to the final concentration of 1 μg/ml. Frozen human PBMCs were thawed following a standard protocol and 250,000 were seeded per well of flat bottom 96-wells plates. CEFT peptide and appropriate concentration of the CD80-Fc fusion proteins were added to the cell suspension. Plates were sealed with breathable plate sealers and incubated for 72 hours at 37° C. in a CO2 incubator. Six hours prior to cell harvest, culture supernatants were collected and stored at −20° C. until used for cytokine analysis by MSD (V-Plex pro-inflammatory panel human kit, Meso Scale Discovery). At the same time brefeldin A solution was added to the cells, to enable intracellular accumulation of cytokines for evaluation by flow cytometry. Upon harvest, cells were stained for surface (among others CD25) and intracellular markers (among others Ki-67 and IFNγ) following a standard flow cytometry staining protocol. Data was collected using BD LSR Fortessa and analyzed using FlowJo v10 software.

[3] = tested on: EMT6 murine breast cancer cells; experiment: EMT6 breast cancer model, combination with talazoparib; type: in vivo, mouse; settings: for Day 20 tumor volume: talazoparib 0.33 mg/kg daily where combined; for % tumor growth inhibition: Day 20, talazoparib 0.33 mg/kg where combined
Procedure: EMT6murine breast cancer cells (3×10^5) were orthotopically implanted in the mammary fat pad of female Balb/c mice. When tumors reached ˜90 mm^3 (day 5 after implantation), mice were randomized and dosed with PBS vehicle control, CD80-K89Q-D90Q-E23C-A26C-Fc (0.1 or 1 mg/kg), and/or 0.33 mg/kg talazoparib (Tala). CD80-D90Q-Fc was dosed on Days 0 and 3, talazoparib was dosed daily. Tumor volume was determined by caliper measurements obtained in 2 dimensions and calculated as width^2×length/2. Error bars are depicted as ±SEM

[4] = CEFT peptide, compared with CD80-WT-Fc

CD80-D90Q-Fc: variant CD80 ECD (D90Q) fused to human IgG1 Fc
enhanced co-stimulation compared to CD80-WT-Fc [1]: about 4 fold

CD80-K89D-D90K-T28V-T57V-Fc: non-cysteine stabilized variant CD80-Fc fusion protein (K89D, D90K, T28V, T57V)
binding to PD-L1 (human PD-L1): undetectable; also recorded: No binding | IL7Rα- and TIGIT-encoding genes relative to anti-human CD3-only baseline, compared to CD80-WT-Fc (CD3+ T cells from PBMCs): greater decrease | expression level of OX-40-encoding gene relative to CD80-WT-Fc (CD3+ T cells from PBMCs): enhanced | expression of anti-apoptotic BCL-XL compared to CD80-WT-Fc (CD3+ T cells from PBMCs): enhanced expression | expression of pro-apoptotic CASP8 compared to CD80-WT-Fc (CD3+ T cells from PBMCs): decreased expression | gene expression of IL-2, IL-21 and Lymphotoxin Alpha (LTA) compared to CD80-WT-Fc (CD3+ T cells from PBMCs): enhanced gene expression | T1/2 [2]: 106 h | increase in CD25 expression of CD8+ T cells (human PBMCs (T cells); [4]): ~30% | increase in Ki-67 staining (proliferative capacity) of CD8+ T cells (human PBMCs (T cells); [4]): ~30% | IFNγ production relative to CD80-WT-Fc (human PBMCs (T cells); MSD in cell supernatant): enhanced IFNγ production | % of IFNγ+CD8+ T cells relative to CD80-WT-Fc (human PBMCs (T cells); flow cytometry): higher % of IFNγ+CD8+ T cells

CD80-K89Q-D90Q-E23C-A26C-Fc: disulfide stabilized variant CD80-Fc fusion protein (K89Q, D90Q, E23C, A26C)
Day 20 tumor volume ([3]; CD80-Fc dose 0.1 mg/kg): 1149.2 mm^3 | Day 20 tumor volume ([3]; CD80-Fc dose 1 mg/kg): 637.5 mm^3 | % tumor growth inhibition ([3]; CD80-Fc dose 0.1 mg/kg): 43.1% | % tumor growth inhibition ([3]; CD80-Fc dose 1 mg/kg): 70.5%

CD80-K89Q-D90Q-Fc: variant CD80 ECD (K89Q, D90Q) fused to human IgG1 Fc
enhanced co-stimulation compared to CD80-WT-Fc [1]: about 4 fold

CD80-WT-Fc: wild-type human CD80 extracellular domain fused to human IgG1 Fc (C220S) [reference compound]
binding to PD-L1 (human PD-L1): detectable binding
